Measured values: PMC12627862, “Therapeutic targeting of endothelial calcium signaling accelerates the resolution of lung injury” (Signal Transduction and Targeted Therapy, 2025)
Starred links: 1 amine or outer side, 2 acyl side, 3 side chain; linkers in the order of their positions; H or OH if unused. Non-standard residues stand in square brackets, D forms with d. Residues, ends and D or L forms follow the SMILES beside them. ξ: configuration not given here. Oic = O=C(O)[C@@H]1C[C@@H]2CCCC[C@@H]2N1; GABOB(3R) = O=C(C[C@@H](O)CN[*:1])[*:2]; tBuAla = CC(C)(C)C[C@H](N)C(=O)O; ξVal(3-OH) = CC(C)(O)C(N)C(=O)O; 4Amb = NCc1ccc(C(=O)O)cc1

Experiments:
[1] = test system: CD1 mice, cecal ligation and puncture; experiment: Polymicrobial sepsis model (CLP); assay type: in vivo, mouse
[2] = Pharmacokinetic studies in rats
Description: Blood samples were collected at predefined time points (2, 10, 30, 60, 90 minutes, and 2, 4, 6, 8, and 24 hours post-dosing) from subgroups of rats, ensuring each animal contributed a limited number of samples to minimize stress. Plasma was separated by centrifugation and stored at -80 °C until analysis. Lungs were collected at selected time points (0.5, 2, 8, and 24 hours) for drug quantification. […] Pharmacokinetic parameters, including Cmax, Tmax, AUC, half-life, clearance, and volume of distribution, were calculated using Phoenix WinNonlin software.

[3] = biological target: full-length EB3 (Homo sapiens, UniProt Q9UPY8); experiment: STD-NMR binding to EB3 (amplification factor); conditions: versus the linear precursor
Sequence of full-length EB3 (Q9UPY8 whole entry, species assumed): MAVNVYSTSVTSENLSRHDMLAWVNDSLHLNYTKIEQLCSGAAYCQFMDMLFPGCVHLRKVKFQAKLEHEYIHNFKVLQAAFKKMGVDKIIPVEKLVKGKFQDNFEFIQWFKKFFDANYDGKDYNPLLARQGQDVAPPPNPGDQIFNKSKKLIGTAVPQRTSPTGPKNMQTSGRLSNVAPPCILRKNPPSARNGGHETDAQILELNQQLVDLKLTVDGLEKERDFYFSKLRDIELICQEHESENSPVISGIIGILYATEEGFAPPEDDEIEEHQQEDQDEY
Description: To screen these drug-like compounds for binding to full-length EB3, we employed the saturation transfer difference (STD)-NMR approach as a cell-free throughput screening platform. We were unable to use other methods, such as isothermal titration calorimetry, because of the nature of the EB3 dimer, which dynamically exchanges chains within the dimer—a process influenced by the binding of the C-terminus to its partners, such as the tested peptides. To analyze the STD-NMR data quantitatively, we established the amplification factor (AMPSTD), a change in signal intensity upon saturation that is normalized to ligand abundance (Fig. 1a), as a measure of the binding affinity of the compounds to the target protein EB3. […]
Fig. 1 NMR-based characterization of EB3 inhibitors. a The saturation transfer difference (STD) NMR approach was used to profile peptide binding to EB3. […] The amplification ratio was calculated as follows: AMPSTD = ISTD/INO SAT x {L}, where ISTD is the highest STD signal intensity measured with saturation; INO SAT is the intensity measured for the same signal without saturation; and {L} is the peptide concentration. c ^1H-^15N HSQC spectrum of ^15N-enriched EB3_200-281 alone (black) and in the presence of a 1:1 molar ratio of 109 (cyan). […]

[4] = in vitro; conditions: mouse, plasma
Description: (§1) Stability assay of peptides in blood plasma of rodents, dogs, and humans. For the plasma stability assay, 5 μM of each peptide was incubated with species-specific plasma for 120 minutes and samples were taken at the required time points. Positive control used were molecules with known stability: enalapril, propantheline, and warfarin. The amount of test compound remaining at each time point was analyzed by LC-MS/MS. Appropriate control compounds for each species were also incubated.

[5] = in vitro; conditions: dog, plasma
Description: as §1

[6] = in vitro; conditions: rat, plasma
Description: as §1

[7] = test system: CD-1 mice subjected to mechanical ventilation; experiment: High tidal volume mechanical ventilation (VILI); assay type: in vivo, mouse; conditions: HVMV 40 mL/kg bw for 2 hours; i.v. 2 µmol/kg bw
Description: Severely ill ARDS patients undergo intubation and are placed on a mechanical ventilator to maintain adequate oxygen levels in the body[42]. This supportive intervention can have detrimental effects on the lungs, leading to diffuse ventilator-induced lung injury (VILI) in the regions exposed to the highest pressure. Furthermore, VILI primarily targets alveolar epithelial cells, in contrast to indirect models of ARDS, such as endotoxemia and sepsis, where systemic inflammation predominantly injures the pulmonary endothelial barrier. Thus, as a part of a safety study, we investigated the effects of VT-109 on the pathogenesis of VILI. Mice that received vehicle or VT-109 at the most efficacious dose of 2 µmol/kg bw were subjected to high-volume mechanical ventilation (HVMV) at 40 mL/kg bw for 2 hours, and albumin extravasation was measured to determine VILI-induced vascular leakage (Fig. 4g, h).
Mice intubated with a 20-gauge catheter were ventilated using a Harvard Apparatus ventilator (Harvard Bioscience) with high tidal volumes of 40 mL/kg body weight, a respiratory rate of 80 breaths per minute, and no positive end-expiratory pressure (PEEP) for 2 hours to induce ventilator-induced lung injury (VILI). Intravenous treatment with 250 nmol/kg bw VT-109 was administered at the onset of HVMV. Mice breathing spontaneously were used as experimental control.

[8] = test system: SARS-CoV-2 (WA1/2020); assay type: in vivo, mouse
[9] = 24 hours after CLP, 18-gauge, n = 3
[10] = 24 hours after CLP, 2 µmol/kg bw i.v. 5 hours post-surgery, n = 5
[11] = BAL 24 hours after CLP, treatment at 5 hours post-surgery, Mean±Std, n = 8–10
[12] = CLP, VT-109 monotherapy 2 µmol/kg bw i.v.
[13] = PF (peritoneal fluid), head says BAL, CLP, Mean±Std
[14] = male, Crl:CD (SD), rat, in vivo, iv, 5 mg/kg
[15] = rat lungs, single IV 5 mg/kg, Phoenix WinNonlin
[16] = rat plasma, single IV 5 mg/kg, Phoenix WinNonlin

CC(C)(C)C[C@@H]1NC(=O)C[C@@H](O)CNC(=O)[C@@H]2C[C@@H]3CCCC[C@@H]3N2C(=O)[C@H](CC(C)(C)C)NC(=O)c2ccc(cc2)CNC(=O)C(C(C)(C)O)NC(=O)[C@@H](Cc2ccccc2)NC1=O (stereo partly drawn) [compound 109, (1^2S,1^3aS,1^7aS,3S,10S,13R,16S,20R)-13-benzyl-20-hydroxy-10-(2-hydroxypropan-2-yl)-3,16-dineopentyl-1^2,1^3,1^3a,1^4,1^5,1^6,1^7,1^7a-octahydro-1^1H-4,8,11,14,17,22-hexaaza-1(1,2)-indola-6(1,4)-benzenacyclotricosaphane-2,5,9,12,15,18,23-heptaone.] (cyclo([4Amb][tBuAla][Oic][GABOB(3R)][tBuAla][dF][ξVal(3-OH)]))
bacterial counts in the blood or peritoneal fluid ([1]; 24 hours after CLP): did not affect
phosphorylation of FOXM1 at Ser715 [1, 9]: increased phosphorylation
sepsis-induced changes of FOXM1, FOXO1, E2F3, β-catenin and p21 in lung tissue (Western blot) [1, 9]: reversed these changes
VE-cadherin and occludin expression ([1]; 24 hours after CLP, 18-gauge, to the baseline levels of sham mice): restored
alanine aminotransferase (ALT), blood [1, 10]: reduced levels
blood urea nitrogen (BUN) [1, 10]: reduced levels
bacterial colony counts in bronchoalveolar lavage fluid (BALF) ([1]; 24 hours after CLP, VT-109 monotherapy versus vehicle): markedly reduced
BAL Cytokine mGM-CSF [1, 11]: 1.21 ± 0.70 pg/mL
BAL Cytokine mIFNγ [1, 11]: 0.49 ± 0.34 pg/mL
BAL Cytokine mIL-1a [1, 11]: 0.14 ± 0.00 pg/mL
BAL Cytokine mIL-1b [1, 11]: 1.59 ± 1.01 pg/mL
BAL Cytokine mIL-4 [1, 11]: 2.79 ± 1.03 pg/mL
BAL Cytokine mIL-6 [1, 11]: 282.12 ± 522.24 pg/mL
BAL Cytokine mIL-10 [1, 11]: 2.19 ± 2.95 pg/mL
BAL Cytokine mIL-12 [1, 11]: 16.99 ± 7.90 pg/mL
BAL Cytokine mIL-17 [1, 11]: 0.14 ± 0.00 pg/mL
BAL Cytokine mKC [1, 11]: 609.75 ± 878.78 pg/mL
BAL Cytokine mMCP-1 [1, 11]: 19.17 ± 28.01 pg/mL
BAL Cytokine mMIP-1α [1, 11]: 1.16 ± 1.31 pg/mL
BAL Cytokine mRANTES [1, 11]: 2.55 ± 5.23 pg/mL
survival rate ([1]; CLP 18-gauge, VT-109 monotherapy 2 µmol/kg bw i.v., initiated 5 hours post-surgery): significantly improved the survival rate
survival ([1]; CLP 18-gauge, monotherapy: VT-109 0.5 µmol/kg bw or enrofloxacin 5 mg/kg bw): neither antibiotics nor VT-109 monotherapy (0.5 µmol/kg bw) significantly improved survival
acute lung injury (H&E, ALI score) [1, 12]: prevented the development of acute lung injury
neutrophil recruitment into lung tissue (Ly6G) [1, 12]: markedly suppressed
Cytokine mGM-CSF [1, 13]: 15.75 ± 20.22 pg/mL
Cytokine mIFNγ [1, 13]: 4.39 ± 3.00 pg/mL
Cytokine mIL-1a [1, 13]: 104.93 ± 94.65 pg/mL
Cytokine mIL-1b [1, 13]: 229.14 ± 237.82 pg/mL
Cytokine mIL-3 [1, 13]: 0.28 ± 0.00 pg/mL
Cytokine mIL-4 [1, 13]: 6.90 ± 0.83 pg/mL
Cytokine mIL-5 [1, 13]: 5.06 ± 2.77 pg/mL
Cytokine mIL-6 [1, 13]: 46833 ± 65942 pg/mL
Cytokine mIL-10 [1, 13]: 432.67 ± 490.14 pg/mL
Cytokine mIL-12 [1, 13]: 57.48 ± 43.37 pg/mL
Cytokine mIL-17 [1, 13]: 7.20 ± 5.26 pg/mL
Cytokine mKC [1, 13]: 24611 ± 34486 pg/mL
Cytokine mMCP-1 [1, 13]: 16338 ± 17531 pg/mL
Cytokine mMIP-1α [1, 13]: 5136 ± 8056 pg/mL
Cytokine mRANTES [1, 13]: 382.32 ± 397.78 pg/mL
Cytokine mTNFα [1, 13]: 29.39 ± 31.64 pg/mL
AUC(0-t) [2, 14]: 12400 ng·h/mL
C0 [2, 14]: 46300 ng/mL
Tmax [2, 14]: 1.98 min
Vd [2, 14]: 3.1 L/kg
clearance [2, 14]: 6.72 mL/min/kg
half-life [2, 14]: 5.33 h
AUC (0-last) [2, 15]: 27219 ng·h/g
Cmax [2, 15]: 3606 ng/g
Lambda_z [2, 15]: 0.1535 h⁻¹
half-life [2, 15]: 4.52 h
persistence of substantial amounts in the lung post dose ([2]; rat lungs, single intravenous injection): at least 24 hours
Cmax [2, 16]: 40548 ng/mL
Lambda_z [2, 16]: 0.1299 h⁻¹
time of peak plasma concentrations (Cmax) after dosing ([2]; rat plasma, single intravenous injection): ≤ 2 min
improvement of EB3 binding by head-to-tail cyclization [3]: approximately 4 fold
half-life at 5 μM [4]: > 8 h
remaining at 2 h, 5 μM [4]: 89.8%
half-life at 5 μM [5]: > 8 h
remaining at 2 h, 5 μM [5]: 91.9%
half-life at 5 μM [6]: 4.88 h
remaining at 2 h, 5 μM [6]: 76.5%
VILI-induced vascular albumin leakage [7]: markedly reduced leakage
recruitment of neutrophils (MPO levels in the lung tissues) [7]: prevented
lung injury (ALI score) ([8]; 250 nmol/kg bw from 1 dpi): promoted the resolution of lung injury by day 7
NFATC2 nuclear accumulation in endothelial and immune cells ([8]; 250 nmol/kg bw, 7 dpi): reduced NFATC2 nuclear accumulation
VE-cadherin junctions ([8]; 250 nmol/kg bw, 7 dpi): reannealed junctions
number of infiltrating monocytes and neutrophils in the BALF ([8]; 2 µmol/kg bw i.v.): significantly reduced
blood-brain barrier (BBB) integrity, cerebral cortex ([8]; 2 µmol/kg bw i.v., 5 dpi): restored BBB integrity
